Values of other authors, collected in patent publication US20180133151A1, “NEBULIZED TIOTROPIUM” (GLENMARK SPECIALTY S.A., priority 2016, published 2018).

Solubility in methanol (methanol): soluble
Solubility in water (water): sparingly soluble
SMILES: C[N+]1(C)C2CC(OC(=O)C(O)(c3cccs3)c3cccs3)CC1C1OC12 (stereo not drawn) [Tiotropium bromide, (1+,2β,4β,7β)-7-[(hydroxydi-2-thienylacetyl)oxy]-9,9-dimethyl-3-oxa-9-azoniatricyclo[3.3.1.02,4]nonane bromide]
